Measurements taken from publication PMC5323398, “Restoration of Epithelial Sodium Channel Function by Synthetic Peptides in Pseudohypoaldosteronism Type 1B Mutants” (Frontiers in Pharmacology, 2017).
Residue numbers refer to the chain shown, from its start.

Legend:
[1] = target: human ENaC with the frameshift γV543fs (γ subunit of 597 residues, abnormal sequence after S542), co-expressed with WT α and β subunits (human) (UniProt P37088)
αQ101K mutant hENaC = target: T1, αQ101K mutant hENaC (Homo sapiens, UniProt P37088+P51168+P51170, Q101K); assay: Whole-cell patch clamp, amiloride-sensitive Na+ current, αQ101K ENaC; assay type: cell-based; conditions: αQ101K activated by solnatide; 10 μM amiloride
T1 construct: expressed in transfected cells
T1 sequence (P37088 1-669 Q101K): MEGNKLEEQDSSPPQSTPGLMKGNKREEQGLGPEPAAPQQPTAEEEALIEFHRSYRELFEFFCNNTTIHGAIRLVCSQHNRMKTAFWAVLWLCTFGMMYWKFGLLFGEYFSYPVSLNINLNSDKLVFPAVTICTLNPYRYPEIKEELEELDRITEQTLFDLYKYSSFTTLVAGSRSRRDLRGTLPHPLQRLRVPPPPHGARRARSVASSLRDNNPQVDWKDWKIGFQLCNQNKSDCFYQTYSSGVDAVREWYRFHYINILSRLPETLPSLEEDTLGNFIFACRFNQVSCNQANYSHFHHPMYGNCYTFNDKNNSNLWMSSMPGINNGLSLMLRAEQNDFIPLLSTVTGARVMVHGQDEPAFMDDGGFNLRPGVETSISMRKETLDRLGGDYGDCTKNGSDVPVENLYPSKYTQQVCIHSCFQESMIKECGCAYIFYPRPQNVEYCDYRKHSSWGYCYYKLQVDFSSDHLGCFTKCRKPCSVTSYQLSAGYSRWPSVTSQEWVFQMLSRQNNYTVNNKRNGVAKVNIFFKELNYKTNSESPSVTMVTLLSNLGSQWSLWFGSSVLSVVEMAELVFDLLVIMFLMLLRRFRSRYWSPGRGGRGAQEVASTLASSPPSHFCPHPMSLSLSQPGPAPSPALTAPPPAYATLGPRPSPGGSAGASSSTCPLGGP
T1 sequence (P51168 1-640): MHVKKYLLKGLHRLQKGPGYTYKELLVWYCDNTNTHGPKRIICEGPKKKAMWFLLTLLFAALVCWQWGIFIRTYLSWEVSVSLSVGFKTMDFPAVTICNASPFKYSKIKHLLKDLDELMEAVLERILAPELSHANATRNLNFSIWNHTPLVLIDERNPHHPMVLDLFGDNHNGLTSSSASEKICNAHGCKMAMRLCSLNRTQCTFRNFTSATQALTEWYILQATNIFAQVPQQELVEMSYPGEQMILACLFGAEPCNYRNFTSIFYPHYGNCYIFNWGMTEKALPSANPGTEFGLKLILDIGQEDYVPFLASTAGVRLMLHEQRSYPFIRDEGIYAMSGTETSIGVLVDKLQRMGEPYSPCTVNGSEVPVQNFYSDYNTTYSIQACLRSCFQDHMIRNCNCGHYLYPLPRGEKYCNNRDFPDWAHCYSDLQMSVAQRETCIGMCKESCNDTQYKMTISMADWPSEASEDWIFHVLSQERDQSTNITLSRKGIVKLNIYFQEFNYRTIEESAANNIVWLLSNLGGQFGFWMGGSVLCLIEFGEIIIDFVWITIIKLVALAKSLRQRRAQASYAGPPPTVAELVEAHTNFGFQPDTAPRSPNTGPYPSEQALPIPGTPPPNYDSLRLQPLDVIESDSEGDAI
T1 sequence (P51170 1-649): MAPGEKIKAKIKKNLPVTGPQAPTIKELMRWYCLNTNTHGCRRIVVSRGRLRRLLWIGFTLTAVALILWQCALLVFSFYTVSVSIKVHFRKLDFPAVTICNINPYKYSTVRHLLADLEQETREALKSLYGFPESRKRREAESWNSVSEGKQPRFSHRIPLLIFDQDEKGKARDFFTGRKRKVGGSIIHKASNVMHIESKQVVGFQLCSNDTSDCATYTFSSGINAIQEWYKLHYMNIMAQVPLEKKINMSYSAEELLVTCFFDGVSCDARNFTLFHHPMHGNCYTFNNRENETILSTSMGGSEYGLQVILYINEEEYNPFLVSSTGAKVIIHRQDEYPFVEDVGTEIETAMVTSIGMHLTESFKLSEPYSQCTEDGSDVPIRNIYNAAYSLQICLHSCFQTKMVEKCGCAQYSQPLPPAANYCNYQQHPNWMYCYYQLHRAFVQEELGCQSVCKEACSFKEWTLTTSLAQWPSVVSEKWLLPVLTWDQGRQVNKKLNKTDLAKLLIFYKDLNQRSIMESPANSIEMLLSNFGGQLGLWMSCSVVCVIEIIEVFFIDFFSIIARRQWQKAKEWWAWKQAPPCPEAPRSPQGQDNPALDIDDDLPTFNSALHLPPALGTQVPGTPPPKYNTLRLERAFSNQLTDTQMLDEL
Experimental: (§1) Human embryonic kidney HEK-293 cells (ATCC no. CRL-1573) in passages 3–25, were seeded in Dulbecco's modified Eagle medium/F12 nutrient mixture Ham plus L-glutamine (DMEM/F-12; Gibco™ by Life Technologies, LifeTech Austria), supplemented with 10% fetal bovine serum (FBS; Gibco™ by Life Technologies, LifeTech Austria) and 1% penicillin-streptomycin (Sigma-Aldrich, Vienna, Austria). Cells were maintained at 37°C with 5% CO2 in a humidified incubator.
(§2) Point mutations and single base (insertions or) deletions, causing a frameshift, were introduced into cDNA encoding α-, β-, or γ-hENaC using QuikChange Lightning Site-Directed Mutagenesis Kit (Agilent Technologies, CA, USA). Pairs of mutagenic primers were designed individually with the Primer Design Program provided on the producer's website. The same bases were changed as reported in patients or at least resulting in the same protein products. The designed primers were ordered after checking their properties using the DNA Oligos Design Tool from Sigma-Aldrich, Vienna, Austria (Table 1).
(§3) HEK-293 cells were transfected 1 day after cell seeding using X-tremeGENE HP DNA transfection reagent (Roche Diagnostics, Mannheim, Germany) according to the manufacturer's protocol. […]

αG327C mutant hENaC = target: T2, αG327C mutant hENaC (Homo sapiens, UniProt P37088+P51168+P51170, G327C); assay: Whole-cell patch clamp, amiloride-sensitive Na+ current, αG327C ENaC; assay type: cell-based; conditions: αG327C activated by AP318; 10 μM amiloride
T2 construct: expressed in transfected cells
T2 sequence (P37088 1-669 G327C): T1 sequence (P37088 1-669 Q101K) with K101Q, G327C
T2 sequence (P51168 1-640): T1 sequence (P51168 1-640)
T2 sequence (P51170 1-649): T1 sequence (P51170 1-649)
Experimental: as §1, §2, §3

[2] = test system: mock-transfected HEK-293 cells; assay: Whole-cell current of mock-transfected cells; assay type: cell-based, human
Experimental: Whole-cell currents were recorded from transfected HEK-293 cells with an Axopatch 200B amplifier, DigiData 1440A and pCLAMP10.2 software (Axon Instruments, Union City, CA) at room temperature (19–22°C) 48–72 h after transfection. Currents were recorded at 10 kHz and filtered at 5 kHz. The chamber contained 1 ml bath solution of the following composition (in mM): 145 NaCl, 2.7 KCl, 1.8 CaCl2, 2 MgCl2, 5.5 glucose, and 10 HEPES, adjusted to pH 7.4 with 1 M NaOH solution. The borosilicate glass patch pipettes (Harvard Apparatus, Holliston, MA) had resistances of 2–4 MΩ. The pipette solution contained (in mM): 135 potassium methane sulphonate, 10 KCl, 6 NaCl, 1Mg2ATP, 2 Na3ATP, 10 HEPES, and 0.5 EGTA, adjusted to pH 7.2 with 1 M KOH solution. Data acquisition and storage were processed directly to a PC. […] Differences were evaluated by one-way ANOVA followed by Tukey's post-hoc test.

Compound | EC50 of the increase of amiloride-sensitive Na+ current, whole-cell patch clamp at -100 mV, transfected HEK-293 cells, peptide 2-200 nM [1] [µM] | block of peptide-induced activation (αQ101K mutant hENaC) | block of peptide-induced activation (αG327C mutant hENaC) | amiloride-sensitive or peptide-induced current ([2]; 10 μM amiloride or 200 nM peptide) | whole-cell current ([2]; 10 μM amiloride, control 11.28 ± 5.68 pA) [pA]
AP318 (peptide) | 0.0477 |  |  |  | 
N=C(N)NC(=O)c1nc(Cl)c(N)nc1N [amiloride] |  | can be blocked by 10 μM amiloride | can be blocked by 10 μM amiloride | about zero | 10.47 ± 6.23
